Here are results for 5 compounds from paper PMC10935023 (Acta Pharmaceutica Sinica. B, 2023).

The target in data set [1] is serotonin transporter (SERT) (Rattus norvegicus, UniProt P31652). It is filed as binding.
The target in a further data set is SERT (Rattus norvegicus, UniProt P31652). Description: [3H]5-HT uptake by crude synaptosomes. The data set is classed as biochemical.
In another data set the target is 5-HT1A (Homo sapiens, UniProt P08908). Description: Receptor binding, [3H]-8-OH-DPAT. As to conditions: read-out: % Inhibition of binding by D01 (10 μmol/L).
For another data set, the target named is 5-HT1B (Homo sapiens, UniProt P28222). The experiment in a line: Receptor binding, [3H]-GR-125743. As to conditions: read-out: % Inhibition of binding by D01 (10 μmol/L).
Sequence of 5-HT1B (P28222 whole entry, species assumed): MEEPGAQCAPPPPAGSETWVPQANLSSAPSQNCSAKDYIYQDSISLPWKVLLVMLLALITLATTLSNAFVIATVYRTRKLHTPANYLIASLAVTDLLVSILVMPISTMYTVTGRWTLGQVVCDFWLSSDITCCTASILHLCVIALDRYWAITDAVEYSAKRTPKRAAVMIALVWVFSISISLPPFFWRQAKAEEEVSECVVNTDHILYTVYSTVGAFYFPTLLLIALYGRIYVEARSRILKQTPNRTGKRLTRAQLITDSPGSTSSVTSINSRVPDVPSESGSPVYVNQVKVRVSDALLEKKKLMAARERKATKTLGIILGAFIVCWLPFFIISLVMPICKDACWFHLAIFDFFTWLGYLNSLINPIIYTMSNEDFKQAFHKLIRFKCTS
A further data set has as its target 5-HT2A (Homo sapiens, UniProt P28223). The experiment in a line: Receptor binding, [3H]-Ketanserin. As to conditions: read-out: % Inhibition of binding by D01 (10 μmol/L).
Another data set deals with 5-HT2C (Homo sapiens, UniProt P28335). The experiment in a line: Receptor binding, [3H]-Mesulergine. The following applies: read-out: % Inhibition of binding by D01 (10 μmol/L).
Sequence of 5-HT2C (P28335 33-458, species assumed): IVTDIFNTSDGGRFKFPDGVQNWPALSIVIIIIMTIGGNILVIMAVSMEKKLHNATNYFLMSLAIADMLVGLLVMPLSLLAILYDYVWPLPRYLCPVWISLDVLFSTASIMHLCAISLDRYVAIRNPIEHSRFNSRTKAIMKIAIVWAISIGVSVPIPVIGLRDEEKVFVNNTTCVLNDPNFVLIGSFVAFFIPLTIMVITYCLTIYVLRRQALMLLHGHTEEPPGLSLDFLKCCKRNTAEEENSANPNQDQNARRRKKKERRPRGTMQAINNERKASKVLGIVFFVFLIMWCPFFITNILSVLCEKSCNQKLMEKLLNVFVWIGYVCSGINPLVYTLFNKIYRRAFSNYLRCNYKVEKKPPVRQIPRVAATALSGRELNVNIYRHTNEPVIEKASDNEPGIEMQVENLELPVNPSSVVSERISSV
The next data set concerns the target D1 (Homo sapiens, UniProt P21728). Description: Receptor binding, [3H]-SCH23390. As to conditions: read-out: % Inhibition of binding by D01 (10 μmol/L).
The next data set addresses D2 (Homo sapiens, UniProt P14416). The experiment in a line: Receptor binding, [3H]-Spiperone. As to conditions: read-out: % Inhibition of binding by D01 (10 μmol/L).
In the next data set the target is D3 (Homo sapiens, UniProt P35462). Description: Receptor binding, [3H]-Spiperone. As to conditions: read-out: % Inhibition of binding by D01 (10 μmol/L).
The target of another data set is α1. Description: Receptor binding, [3H]-Prazosin.
The test system of the next data set is α2. The experiment in a line: Receptor binding, [3H]-Rauwolscine. As to conditions: α2, 10 μmol/L.
For a further data set, the target named is M1 (Homo sapiens, UniProt P11229). Description: Receptor binding, [3H]-QNB. As to conditions: read-out: % Inhibition of binding by D01 (10 μmol/L).
For a further data set, the target named is H1 (Homo sapiens, UniProt P35367). The experiment in a line: Receptor binding, [3H]-Pyrilamine.
Sequence of H1 (P35367 whole entry): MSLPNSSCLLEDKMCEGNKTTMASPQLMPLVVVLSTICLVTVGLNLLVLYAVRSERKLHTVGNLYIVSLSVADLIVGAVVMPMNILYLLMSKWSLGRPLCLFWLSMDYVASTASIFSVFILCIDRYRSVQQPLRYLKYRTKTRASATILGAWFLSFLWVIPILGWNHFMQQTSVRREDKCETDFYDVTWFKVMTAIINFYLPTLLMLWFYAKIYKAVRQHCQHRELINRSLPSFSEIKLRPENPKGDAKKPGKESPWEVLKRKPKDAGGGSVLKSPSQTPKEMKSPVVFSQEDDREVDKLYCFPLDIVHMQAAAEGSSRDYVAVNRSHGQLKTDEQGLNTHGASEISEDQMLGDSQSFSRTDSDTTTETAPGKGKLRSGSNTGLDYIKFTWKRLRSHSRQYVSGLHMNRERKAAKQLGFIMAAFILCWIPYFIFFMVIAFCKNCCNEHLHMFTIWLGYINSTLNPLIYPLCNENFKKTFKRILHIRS
In another data set the target is H3 (Homo sapiens, UniProt Q9Y5N1). Description: Receptor binding, [3H]-Methylhistamine. As to conditions: read-out: % Inhibition of binding by D01 (10 μmol/L).
A further data set addresses Sigma-1 (Homo sapiens, UniProt Q99720). The experiment in a line: Receptor binding, [3H]-Pentazocine. As to conditions: read-out: % Inhibition of binding by D01 (10 μmol/L).
The subject of a further data set is NMDA. Description: Receptor binding, [3H]-MK801.
For the next data set, the target named is KCNQ2/3 channels (Homo sapiens, UniProt O43525+O43526). It is filed as cell-based.
Sequence of KCNQ2/3 channels (O43525 whole entry): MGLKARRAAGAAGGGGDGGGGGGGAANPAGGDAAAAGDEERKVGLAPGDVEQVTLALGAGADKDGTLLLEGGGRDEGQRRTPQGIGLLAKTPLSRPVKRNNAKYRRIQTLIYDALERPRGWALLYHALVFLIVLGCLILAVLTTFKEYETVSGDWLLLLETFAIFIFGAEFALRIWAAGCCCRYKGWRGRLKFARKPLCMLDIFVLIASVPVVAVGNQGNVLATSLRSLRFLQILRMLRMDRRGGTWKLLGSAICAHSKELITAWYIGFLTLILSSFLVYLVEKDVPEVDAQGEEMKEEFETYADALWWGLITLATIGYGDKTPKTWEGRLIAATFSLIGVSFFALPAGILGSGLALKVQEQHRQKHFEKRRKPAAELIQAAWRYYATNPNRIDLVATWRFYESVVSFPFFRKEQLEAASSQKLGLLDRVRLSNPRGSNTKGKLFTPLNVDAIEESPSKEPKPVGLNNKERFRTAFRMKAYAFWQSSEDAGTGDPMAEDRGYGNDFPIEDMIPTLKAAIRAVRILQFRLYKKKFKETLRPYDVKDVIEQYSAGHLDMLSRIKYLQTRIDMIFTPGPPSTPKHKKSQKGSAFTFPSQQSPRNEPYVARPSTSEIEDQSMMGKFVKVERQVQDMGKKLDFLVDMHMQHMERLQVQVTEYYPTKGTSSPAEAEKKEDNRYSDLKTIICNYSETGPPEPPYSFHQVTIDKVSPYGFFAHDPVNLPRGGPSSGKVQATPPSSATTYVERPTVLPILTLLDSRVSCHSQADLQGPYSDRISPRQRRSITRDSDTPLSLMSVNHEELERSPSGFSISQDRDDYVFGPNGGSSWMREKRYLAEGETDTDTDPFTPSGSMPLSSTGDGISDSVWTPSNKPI
Sequence of KCNQ2/3 channels (O43526 whole entry): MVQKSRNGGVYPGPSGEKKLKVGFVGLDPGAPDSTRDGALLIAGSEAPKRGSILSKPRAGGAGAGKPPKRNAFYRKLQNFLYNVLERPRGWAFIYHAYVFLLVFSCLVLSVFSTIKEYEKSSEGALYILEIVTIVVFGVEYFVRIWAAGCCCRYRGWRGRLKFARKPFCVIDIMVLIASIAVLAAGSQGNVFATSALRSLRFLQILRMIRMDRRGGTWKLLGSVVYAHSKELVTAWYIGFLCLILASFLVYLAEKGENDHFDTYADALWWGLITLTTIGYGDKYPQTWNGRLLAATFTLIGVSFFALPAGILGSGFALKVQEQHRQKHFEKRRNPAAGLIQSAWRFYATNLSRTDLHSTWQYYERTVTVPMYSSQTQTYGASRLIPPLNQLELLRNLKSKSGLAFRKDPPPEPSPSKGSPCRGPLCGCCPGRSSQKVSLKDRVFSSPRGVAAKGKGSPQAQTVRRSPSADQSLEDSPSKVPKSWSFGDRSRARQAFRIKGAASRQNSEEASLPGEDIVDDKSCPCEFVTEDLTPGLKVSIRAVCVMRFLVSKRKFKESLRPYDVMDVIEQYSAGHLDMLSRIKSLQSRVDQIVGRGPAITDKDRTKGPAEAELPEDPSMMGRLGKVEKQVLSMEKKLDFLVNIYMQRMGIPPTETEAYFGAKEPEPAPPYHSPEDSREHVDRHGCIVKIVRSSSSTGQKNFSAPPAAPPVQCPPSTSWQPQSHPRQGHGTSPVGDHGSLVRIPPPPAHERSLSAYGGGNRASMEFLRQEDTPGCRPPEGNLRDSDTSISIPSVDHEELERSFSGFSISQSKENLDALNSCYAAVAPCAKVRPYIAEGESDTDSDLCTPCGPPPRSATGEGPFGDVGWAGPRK
The test system of the next data set is hippocampal neurons. The experiment in a line: Resting membrane potential and firing of cultured hippocampal neurons. It is filed as cell-based, rat. As to conditions: 100 μmol/L.
The subject of data set [2] is mice. The experiment in a line: Forced swimming test. It is filed as in vivo, mouse. The following applies: i.g., 1 h before test, doses 10, 30, 100 mg/kg.
Data set [3] deals with mice. The experiment in a line: Tail suspension test. The data set is classed as in vivo, mouse. As to conditions: i.g., 60 min before test, doses 10, 30, 100 mg/kg.
The test system of data set [4] is CRS mice. Description: FST in chronic restraint stress. The data set is classed as in vivo, mouse.
The subject of data set [5] is CRS mice. Description: TST in chronic restraint stress. It is filed as in vivo, mouse.
Another data set concerns normal mice. The experiment in a line: Novel object recognition. The data set is classed as in vivo, mouse.
In another data set the test system is scopolamine-treated mice. The experiment in a line: NOR in scopolamine-induced cognitive deficit. The data set is classed as in vivo, mouse.
The subject of a further data set is hippocampal slices, CA1. Description: LTP recording. The data set is classed as in vivo, mouse. The following applies: 30 mg/kg i.p. + scopolamine 1 mg/kg i.p.
Data set [6] has as its system CRS mice. Description: Morris water maze. The data set is classed as in vivo, mouse.
The next data set concerns animals. The experiment in a line: Observation of epileptic behavior in treated animals. The following applies: up to 100 mg/kg. It is filed as in vivo.
A further data set has as its system native KCNQ/M channels. The experiment in a line: Whole-cell recording of native M current in cultured hippocampal neurons. The following applies: measured at −60 mV.
Setting [7] is: fluoxetine 20 mg/kg i.g., 21 days.

Molecules are shown by their SMILES.

Sequence of Sigma-1 (Q99720 whole entry): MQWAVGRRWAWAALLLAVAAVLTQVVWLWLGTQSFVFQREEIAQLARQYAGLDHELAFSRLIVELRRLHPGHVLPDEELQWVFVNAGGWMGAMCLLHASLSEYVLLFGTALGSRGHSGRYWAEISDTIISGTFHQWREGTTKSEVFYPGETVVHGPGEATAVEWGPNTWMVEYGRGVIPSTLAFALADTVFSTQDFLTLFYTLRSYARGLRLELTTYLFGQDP
Sequence of D2 (P14416 whole entry): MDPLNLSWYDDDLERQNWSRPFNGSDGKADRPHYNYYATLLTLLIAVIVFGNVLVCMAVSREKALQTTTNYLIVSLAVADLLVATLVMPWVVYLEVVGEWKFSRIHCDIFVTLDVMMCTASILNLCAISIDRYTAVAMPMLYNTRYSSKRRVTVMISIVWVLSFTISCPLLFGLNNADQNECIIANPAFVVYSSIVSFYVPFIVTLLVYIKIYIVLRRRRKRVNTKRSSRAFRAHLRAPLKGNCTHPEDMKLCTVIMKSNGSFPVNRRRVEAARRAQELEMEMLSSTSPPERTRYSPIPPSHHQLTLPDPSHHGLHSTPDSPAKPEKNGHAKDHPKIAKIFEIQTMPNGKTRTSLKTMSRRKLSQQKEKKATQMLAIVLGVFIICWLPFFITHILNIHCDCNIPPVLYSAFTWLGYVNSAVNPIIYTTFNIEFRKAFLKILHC
Sequence of serotonin transporter (SERT) (P31652 whole entry): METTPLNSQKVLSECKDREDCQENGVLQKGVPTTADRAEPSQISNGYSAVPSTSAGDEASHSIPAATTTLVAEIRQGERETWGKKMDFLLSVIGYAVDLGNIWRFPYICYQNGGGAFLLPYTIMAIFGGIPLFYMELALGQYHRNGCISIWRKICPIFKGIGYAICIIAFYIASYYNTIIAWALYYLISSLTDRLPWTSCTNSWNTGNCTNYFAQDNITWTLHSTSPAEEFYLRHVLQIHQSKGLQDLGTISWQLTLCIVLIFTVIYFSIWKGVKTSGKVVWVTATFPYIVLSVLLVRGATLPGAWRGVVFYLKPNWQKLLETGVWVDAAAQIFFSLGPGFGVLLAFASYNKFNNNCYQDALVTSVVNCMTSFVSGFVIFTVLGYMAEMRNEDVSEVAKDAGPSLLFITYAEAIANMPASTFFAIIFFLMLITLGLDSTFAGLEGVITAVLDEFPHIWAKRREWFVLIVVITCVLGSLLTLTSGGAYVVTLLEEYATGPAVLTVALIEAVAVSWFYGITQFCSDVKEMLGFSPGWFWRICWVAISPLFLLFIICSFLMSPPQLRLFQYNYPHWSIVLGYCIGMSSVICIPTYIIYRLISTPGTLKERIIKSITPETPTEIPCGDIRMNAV
Sequence of SERT (P31652 whole entry): as above

Compound `CC(CN(C)C)C(Oc1cccc2ccccc12)c1cccs1` (centres unmarked) [Compound D01, N,N,2-trimethyl-3-(1-naphthyloxy)-3-(thien-2-yl) propan-1-amine] came in with an inhibition constant (Ki) in [1] of 0.0301 ± 0.0069 µM. The IC50 was 0.045 ± 0.009 µM against SERT; over 10 µM on α1 (read-out: IC50 for D01, α1); over 10 µM at H1; 10.1 ± 2.4 µM on KCNQ2/3 channels. Also, the inhibition at 10 µM was -24.1% on 5-HT1A; 12% on 5-HT1B; 25.1% on 5-HT2A; 38% at 5-HT2C; 16.3% at D1; 16.1% on D2. The inhibition at 10 µM amounted to 32.8% on D3; 24.7% on M1; 61.8% on H1 (read-out: % Inhibition of binding by D01 (10 μmol/L)); 13.9% at H3; 34% at Sigma-1. For the same compound, the “% Inhibition of binding by D01 (10 μmol/L)” value in the data set with α1 (α1, 10 μmol/L) came out at 56.21%; with α2, 38.43%; with NMDA, 9.83%. For the same compound, the “effect on resting membrane potential” value with hippocampal neurons is recorded as “depolarizes”. For the same compound, in the data set with hippocampal neurons, the “significant increase of firing frequency” value is “did not observe”. In the data set with mice [2], the “minimal effective dose (MED), immobility in FST” value is reported as 30 mg/kg. Also, the “minimal effective dose (MED), immobility in TST” value in the data set with mice [3] stood at 10 mg/kg. The “immobility time in FST” value in the data set on CRS mice [4] (20 mg/kg i.g., 21 days (D01)) is reported as 54.53 ± 18.11 s; with CRS mice [4] (40 mg/kg i.g., 21 days), 44.62 ± 17.03 s. For the same compound, the “immobility time in TST” value in the data set with CRS mice [5] (20 mg/kg i.g., 21 days (D01)) worked out at 87.61 ± 12.04 s; with CRS mice [5] (40 mg/kg i.g., 21 days) it was 68.17 ± 20.30 s. Besides, the “time spent on familiar object” value was 7.20 ± 2.73 s in the data set with normal mice (30 mg/kg i.g.) and 10.90 ± 2.50 s with normal mice (100 mg/kg i.g.). For the same compound, the entries for the “time spent on novel object” value in the data set on normal mice (30 mg/kg i.g.) and in the data set on normal mice (100 mg/kg i.g.) were 18.10 ± 6.42 s and 21.90 ± 4.84 s, respectively. The “discrimination index (DI)” value with scopolamine-treated mice (scopolamine 1 mg/kg i.p. + 10 mg/kg i.g.) is listed as 0.21 ± 0.08; with scopolamine-treated mice (scopolamine 1 mg/kg i.p. + 30 mg/kg i.g.), 0.36 ± 0.03; in the data set on scopolamine-treated mice (scopolamine 1 mg/kg i.p. + 100 mg/kg i.g.), 0.45 ± 0.05. For the same compound, the “effect on scopolamine-induced LTP inhibition” value with hippocampal slices, CA1 is on record as “significantly reversed”. For the same compound, the “distance traveled while crossing the target zone, probe trial Day 5” value with CRS mice [6] (10 mg/kg i.g.) stood at 4748.7 ± 308.1 cm; in the data set on CRS mice [6] (20 mg/kg i.g.), 4501.3 ± 266.5 cm; with CRS mice [6] (40 mg/kg i.g.) it was 4357.5 ± 310.9 cm. For the same compound, the “escape latency after four days of training” value with CRS mice [6] (10 mg/kg i.g.) is 37.3 ± 3.1 s; in the data set with CRS mice [6] (20 mg/kg i.g.) it was 32.2 ± 3.6 s; with CRS mice [6] (40 mg/kg i.g.), 30.1 ± 3.9 s. For the same compound, the initial escape latency is on record as 51.1 ± 2.5 s with CRS mice [6] (10 mg/kg i.g.), 45.7 ± 3.7 s in the data set on CRS mice [6] (20 mg/kg i.g.) and 42.6 ± 3.5 s with CRS mice [6] (40 mg/kg i.g.). Moreover, the “time in the target quadrant, probe trial Day 5” value amounted to 15.8 ± 0.8 s in the data set with CRS mice [6] (20 mg/kg i.g.) and 16.2 ± 0.8 s in the data set on CRS mice [6] (40 mg/kg i.g.). Further, the epileptic behavior entry in the data set with animals is “did not observe”. Also, the “effect on native M current” value in the data set on native KCNQ/M channels (100 μmol/L) was “dramatically inhibits”.

On to `CCOC(=O)Nc1ccc(NCc2ccc(F)cc2)cc1N` [RTG, retigabine], for which, in the data set on native KCNQ/M channels (10 μmol/L), the “effect on native M current” value is given as “activated”.

Regarding `O=C1c2ccccc2C(Cc2ccncc2)(Cc2ccncc2)c2ccccc21` [XE991, reference compound], in the data set with CRS mice [4] (1 mg/kg s.c.), the “reduction of immobility in FST” value was “not statistically significant”. In addition, in the data set with CRS mice [5] (1 mg/kg s.c.), the “reduction of immobility in TST” value was “not statistically significant”. For the same compound, in the data set on normal mice (1 mg/kg s.c.), the “time spent on familiar object” value was determined as 16.50 ± 2.63 s and the “time spent on novel object” value is listed as 38.40 ± 3.80 s. Moreover, the “discrimination index (DI)” value in the data set with scopolamine-treated mice (scopolamine 1 mg/kg i.p. + XE991 1 mg/kg s.c.) is on record as 0.36 ± 0.04. Moreover, in the data set with CRS mice [6] (XE991 1 mg/kg s.c.), the “effect on time and distance in target quadrant, probe trial Day 5” value is on record as “did not exhibit any noticeable effects”; the “escape latency after four days of training” value worked out at 33.4 ± 3.4 s; the initial escape latency was 48.9 ± 3.4 s. In the data set with native KCNQ/M channels (3 μmol/L), the “effect on native M current” value is “inhibited”.

As to `CNCCC(Oc1ccc(C(F)(F)F)cc1)c1ccccc1` (centres unmarked) [fluoxetine, reference compound], the “immobility time in FST” value with CRS mice [4] (setting [7]) is reported as 18.7 ± 6.3 s. Besides, the “immobility time in TST” value with CRS mice [5] (setting [7]) is on record as 69.8 ± 14.9 s. For the same compound, in the data set on normal mice (fluoxetine 100 mg/kg i.g.), the “difference in time spent on novel and familiar objects” value is reported as “no obvious difference”. Also, in the data set with scopolamine-treated mice (scopolamine 1 mg/kg i.p. + fluoxetine 100 mg/kg i.g.), the “improvement in scopolamine-induced cognitive impairment” value is “did not show any noticeable improvement”. In the data set on CRS mice [6] (fluoxetine 20 mg/kg i.g.), the “effect on escape latency” value was “did not show any significant effect”; the “effect on time and distance in target quadrant, probe trial Day 5” value is “did not exhibit any noticeable effects”.

`CCN(C)C(=O)Oc1cccc([C@H](C)N(C)C)c1` [rivastigmine, reference compound]: in the data set on scopolamine-treated mice (scopolamine 1 mg/kg i.p. + 0.01 mg/kg s.c.), the “improvement in scopolamine-induced cognitive impairment” value is “did not show any noticeable improvement”.
